Common to all, as to assay: kinome screen (33PanQinase)
Assay type in all cases: biochemical

In one assay the target is T1, ABL1 (Homo sapiens, UniProt P00519).
T1 construct: purchased Reaction Biology Europe GmbH (formerly ProQinase)
As for the experimental part:
(§1) The Kinome Screening was performed by Reaction Biology Europe GmbH (http://reactionbiology.com; Freiburg i. Br., Germany).

Another assay concerns the target T2, BRSK2 (Homo sapiens, UniProt Q8IWQ3).
T2 construct: purchased Reaction Biology Europe GmbH (formerly ProQinase)
T2 sequence (Q8IWQ3 1-736): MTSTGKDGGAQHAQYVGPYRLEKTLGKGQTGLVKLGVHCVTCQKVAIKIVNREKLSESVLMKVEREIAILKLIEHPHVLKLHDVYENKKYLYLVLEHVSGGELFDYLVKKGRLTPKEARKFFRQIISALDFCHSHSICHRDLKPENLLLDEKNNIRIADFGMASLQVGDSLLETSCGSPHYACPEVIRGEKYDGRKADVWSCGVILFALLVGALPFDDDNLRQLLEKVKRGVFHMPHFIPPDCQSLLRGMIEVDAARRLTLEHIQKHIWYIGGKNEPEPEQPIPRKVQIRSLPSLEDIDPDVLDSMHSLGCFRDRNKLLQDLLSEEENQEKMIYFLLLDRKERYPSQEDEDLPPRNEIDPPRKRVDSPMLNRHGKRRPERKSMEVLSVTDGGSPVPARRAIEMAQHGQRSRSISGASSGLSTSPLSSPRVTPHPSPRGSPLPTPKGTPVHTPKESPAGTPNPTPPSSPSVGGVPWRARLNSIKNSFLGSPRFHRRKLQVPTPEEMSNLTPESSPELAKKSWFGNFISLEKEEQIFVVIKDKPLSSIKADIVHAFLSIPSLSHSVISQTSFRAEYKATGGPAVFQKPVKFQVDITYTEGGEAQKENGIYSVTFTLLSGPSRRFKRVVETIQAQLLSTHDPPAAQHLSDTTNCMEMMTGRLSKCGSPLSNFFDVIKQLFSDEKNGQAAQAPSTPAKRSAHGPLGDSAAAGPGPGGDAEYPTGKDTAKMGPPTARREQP
The method, then: as §1

Another assay has as its target T3, CAMKK1 (Homo sapiens, UniProt Q8N5S9).
T3 construct: purchased Reaction Biology Europe GmbH (formerly ProQinase)
As for the experimental part: as §1

The target of another assay is T4, CDK6/CycD1 (Homo sapiens, UniProt Q00534).
T4 construct: purchased Reaction Biology Europe GmbH (formerly ProQinase)
The method, then:
as §1

For the next assay, the target named is T5, EIF2AK3 (Homo sapiens, UniProt Q9NZJ5).
T5 construct: purchased Reaction Biology Europe GmbH (formerly ProQinase)
T5 sequence (Q9NZJ5 30-1116): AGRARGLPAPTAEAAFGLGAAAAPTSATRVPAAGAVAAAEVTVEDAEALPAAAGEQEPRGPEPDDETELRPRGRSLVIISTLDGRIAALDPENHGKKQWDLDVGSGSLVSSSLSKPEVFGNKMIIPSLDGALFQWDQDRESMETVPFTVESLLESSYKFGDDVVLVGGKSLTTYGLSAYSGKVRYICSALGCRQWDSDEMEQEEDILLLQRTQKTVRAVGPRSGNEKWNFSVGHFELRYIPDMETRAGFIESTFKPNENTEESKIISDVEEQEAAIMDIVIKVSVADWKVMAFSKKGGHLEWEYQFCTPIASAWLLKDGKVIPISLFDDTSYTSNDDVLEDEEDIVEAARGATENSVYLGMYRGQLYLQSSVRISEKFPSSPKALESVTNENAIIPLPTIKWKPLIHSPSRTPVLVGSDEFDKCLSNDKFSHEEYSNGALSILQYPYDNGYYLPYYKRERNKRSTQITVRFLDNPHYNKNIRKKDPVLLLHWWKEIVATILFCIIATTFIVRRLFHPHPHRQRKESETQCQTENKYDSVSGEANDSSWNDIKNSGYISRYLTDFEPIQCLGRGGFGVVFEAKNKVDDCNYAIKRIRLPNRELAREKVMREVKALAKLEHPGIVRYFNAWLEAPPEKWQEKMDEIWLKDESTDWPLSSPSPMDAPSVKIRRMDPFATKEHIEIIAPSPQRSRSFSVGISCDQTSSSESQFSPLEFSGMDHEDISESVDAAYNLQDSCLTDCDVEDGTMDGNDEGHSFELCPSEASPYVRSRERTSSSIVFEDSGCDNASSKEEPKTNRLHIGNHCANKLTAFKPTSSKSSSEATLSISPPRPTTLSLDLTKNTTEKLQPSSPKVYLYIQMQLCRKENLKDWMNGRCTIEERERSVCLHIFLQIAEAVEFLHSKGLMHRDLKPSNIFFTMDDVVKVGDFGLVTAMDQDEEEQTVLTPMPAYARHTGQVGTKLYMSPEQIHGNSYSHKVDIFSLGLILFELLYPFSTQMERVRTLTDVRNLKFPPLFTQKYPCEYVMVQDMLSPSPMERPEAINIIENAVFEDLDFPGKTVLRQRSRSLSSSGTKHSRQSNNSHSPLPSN
As for the experimental part: as §1

In the next assay the target is T6, ERBB4 (Homo sapiens, UniProt Q15303).
T6 construct: purchased Reaction Biology Europe GmbH (formerly ProQinase)
The method, then: as §1

The target in the next assay is T7, FES (Homo sapiens, UniProt P07332).
T7 construct: purchased Reaction Biology Europe GmbH (formerly ProQinase)
As for the experimental part: as §1

In another assay the target is T8, PKCΔ (Homo sapiens, UniProt Q05655).
T8 construct: purchased Reaction Biology Europe GmbH (formerly ProQinase)
The method, then: as §1

Another assay concerns the target T9, TSSK1 (Homo sapiens, UniProt Q9BXA7).
T9 construct: purchased Reaction Biology Europe GmbH (formerly ProQinase)
T9 sequence (Q9BXA7 1-367): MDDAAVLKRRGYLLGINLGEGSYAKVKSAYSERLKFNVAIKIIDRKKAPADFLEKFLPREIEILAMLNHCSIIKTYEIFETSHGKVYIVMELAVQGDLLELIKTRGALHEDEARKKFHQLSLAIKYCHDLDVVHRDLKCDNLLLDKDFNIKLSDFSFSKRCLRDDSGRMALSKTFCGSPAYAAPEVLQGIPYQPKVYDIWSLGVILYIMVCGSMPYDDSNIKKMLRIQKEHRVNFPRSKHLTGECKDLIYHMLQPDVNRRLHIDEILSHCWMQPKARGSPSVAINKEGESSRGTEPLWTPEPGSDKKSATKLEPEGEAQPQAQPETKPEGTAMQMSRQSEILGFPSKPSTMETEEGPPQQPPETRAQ
The method, then: as §1

T8 sequence (Q05655 whole entry, stated change not applied): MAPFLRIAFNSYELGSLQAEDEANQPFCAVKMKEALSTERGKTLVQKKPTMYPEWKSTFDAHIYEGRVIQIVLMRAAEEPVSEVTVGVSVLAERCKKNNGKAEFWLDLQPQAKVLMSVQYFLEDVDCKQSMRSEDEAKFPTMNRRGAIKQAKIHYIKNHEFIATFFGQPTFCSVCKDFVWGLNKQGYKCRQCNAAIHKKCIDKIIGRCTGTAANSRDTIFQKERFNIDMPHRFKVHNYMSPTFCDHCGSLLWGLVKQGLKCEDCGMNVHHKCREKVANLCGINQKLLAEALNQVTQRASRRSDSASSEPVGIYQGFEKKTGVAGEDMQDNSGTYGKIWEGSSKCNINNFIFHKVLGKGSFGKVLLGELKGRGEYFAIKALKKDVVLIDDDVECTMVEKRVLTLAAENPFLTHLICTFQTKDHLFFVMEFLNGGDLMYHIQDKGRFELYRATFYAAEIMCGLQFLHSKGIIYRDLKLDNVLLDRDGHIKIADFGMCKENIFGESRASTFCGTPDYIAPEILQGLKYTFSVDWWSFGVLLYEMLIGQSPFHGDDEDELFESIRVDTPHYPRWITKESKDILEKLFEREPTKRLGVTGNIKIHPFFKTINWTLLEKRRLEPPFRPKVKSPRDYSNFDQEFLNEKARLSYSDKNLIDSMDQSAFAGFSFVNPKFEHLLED
T7 sequence (P07332 whole entry): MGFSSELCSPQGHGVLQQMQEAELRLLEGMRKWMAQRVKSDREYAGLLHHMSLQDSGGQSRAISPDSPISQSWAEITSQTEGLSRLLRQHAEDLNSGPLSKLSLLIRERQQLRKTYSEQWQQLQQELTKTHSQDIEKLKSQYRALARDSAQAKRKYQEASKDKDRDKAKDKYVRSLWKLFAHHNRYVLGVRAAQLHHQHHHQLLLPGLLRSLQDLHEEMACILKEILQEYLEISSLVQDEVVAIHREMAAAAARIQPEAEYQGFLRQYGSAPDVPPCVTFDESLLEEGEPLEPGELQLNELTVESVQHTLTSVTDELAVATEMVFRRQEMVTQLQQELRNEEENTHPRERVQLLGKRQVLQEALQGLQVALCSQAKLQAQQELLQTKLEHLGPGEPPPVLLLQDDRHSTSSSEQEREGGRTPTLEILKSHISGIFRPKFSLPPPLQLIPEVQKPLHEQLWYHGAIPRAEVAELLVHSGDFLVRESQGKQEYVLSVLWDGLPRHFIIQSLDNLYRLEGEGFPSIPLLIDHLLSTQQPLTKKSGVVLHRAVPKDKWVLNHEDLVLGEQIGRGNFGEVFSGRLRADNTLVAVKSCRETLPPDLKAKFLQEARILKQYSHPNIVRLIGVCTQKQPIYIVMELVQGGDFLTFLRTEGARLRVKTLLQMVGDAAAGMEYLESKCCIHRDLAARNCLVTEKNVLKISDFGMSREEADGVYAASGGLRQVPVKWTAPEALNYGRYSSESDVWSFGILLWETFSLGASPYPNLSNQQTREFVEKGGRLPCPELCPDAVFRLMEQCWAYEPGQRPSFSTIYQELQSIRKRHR
T1 sequence (P00519 whole entry): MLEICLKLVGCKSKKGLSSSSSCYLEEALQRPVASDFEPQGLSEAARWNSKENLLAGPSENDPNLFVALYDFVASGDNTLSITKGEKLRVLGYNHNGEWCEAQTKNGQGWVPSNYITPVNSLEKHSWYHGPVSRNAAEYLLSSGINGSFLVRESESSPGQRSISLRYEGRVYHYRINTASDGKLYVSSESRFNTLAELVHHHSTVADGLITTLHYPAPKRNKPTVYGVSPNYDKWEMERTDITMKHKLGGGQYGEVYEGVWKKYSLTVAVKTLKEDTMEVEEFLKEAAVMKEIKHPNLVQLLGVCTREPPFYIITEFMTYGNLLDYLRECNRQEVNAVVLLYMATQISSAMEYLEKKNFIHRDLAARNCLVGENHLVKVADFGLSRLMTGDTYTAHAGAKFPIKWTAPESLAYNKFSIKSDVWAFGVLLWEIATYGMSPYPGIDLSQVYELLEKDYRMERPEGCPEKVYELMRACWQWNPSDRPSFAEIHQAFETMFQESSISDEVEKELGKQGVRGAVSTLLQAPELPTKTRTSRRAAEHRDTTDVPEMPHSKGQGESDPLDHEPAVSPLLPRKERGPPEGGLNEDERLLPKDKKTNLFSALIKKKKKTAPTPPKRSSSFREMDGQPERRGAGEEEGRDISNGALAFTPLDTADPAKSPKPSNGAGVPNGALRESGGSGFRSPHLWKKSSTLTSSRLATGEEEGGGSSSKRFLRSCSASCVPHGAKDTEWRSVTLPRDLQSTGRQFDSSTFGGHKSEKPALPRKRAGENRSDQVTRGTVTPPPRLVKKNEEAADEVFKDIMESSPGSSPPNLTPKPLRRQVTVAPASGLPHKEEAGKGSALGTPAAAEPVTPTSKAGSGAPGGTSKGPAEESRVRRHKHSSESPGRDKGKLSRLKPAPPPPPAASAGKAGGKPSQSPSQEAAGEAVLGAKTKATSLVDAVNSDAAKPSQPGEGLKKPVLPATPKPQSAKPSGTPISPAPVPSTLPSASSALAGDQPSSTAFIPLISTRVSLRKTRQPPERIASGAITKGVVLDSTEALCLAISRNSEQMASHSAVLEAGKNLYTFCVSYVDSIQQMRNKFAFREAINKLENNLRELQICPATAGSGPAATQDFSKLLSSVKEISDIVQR
T6 sequence (Q15303 26-1308): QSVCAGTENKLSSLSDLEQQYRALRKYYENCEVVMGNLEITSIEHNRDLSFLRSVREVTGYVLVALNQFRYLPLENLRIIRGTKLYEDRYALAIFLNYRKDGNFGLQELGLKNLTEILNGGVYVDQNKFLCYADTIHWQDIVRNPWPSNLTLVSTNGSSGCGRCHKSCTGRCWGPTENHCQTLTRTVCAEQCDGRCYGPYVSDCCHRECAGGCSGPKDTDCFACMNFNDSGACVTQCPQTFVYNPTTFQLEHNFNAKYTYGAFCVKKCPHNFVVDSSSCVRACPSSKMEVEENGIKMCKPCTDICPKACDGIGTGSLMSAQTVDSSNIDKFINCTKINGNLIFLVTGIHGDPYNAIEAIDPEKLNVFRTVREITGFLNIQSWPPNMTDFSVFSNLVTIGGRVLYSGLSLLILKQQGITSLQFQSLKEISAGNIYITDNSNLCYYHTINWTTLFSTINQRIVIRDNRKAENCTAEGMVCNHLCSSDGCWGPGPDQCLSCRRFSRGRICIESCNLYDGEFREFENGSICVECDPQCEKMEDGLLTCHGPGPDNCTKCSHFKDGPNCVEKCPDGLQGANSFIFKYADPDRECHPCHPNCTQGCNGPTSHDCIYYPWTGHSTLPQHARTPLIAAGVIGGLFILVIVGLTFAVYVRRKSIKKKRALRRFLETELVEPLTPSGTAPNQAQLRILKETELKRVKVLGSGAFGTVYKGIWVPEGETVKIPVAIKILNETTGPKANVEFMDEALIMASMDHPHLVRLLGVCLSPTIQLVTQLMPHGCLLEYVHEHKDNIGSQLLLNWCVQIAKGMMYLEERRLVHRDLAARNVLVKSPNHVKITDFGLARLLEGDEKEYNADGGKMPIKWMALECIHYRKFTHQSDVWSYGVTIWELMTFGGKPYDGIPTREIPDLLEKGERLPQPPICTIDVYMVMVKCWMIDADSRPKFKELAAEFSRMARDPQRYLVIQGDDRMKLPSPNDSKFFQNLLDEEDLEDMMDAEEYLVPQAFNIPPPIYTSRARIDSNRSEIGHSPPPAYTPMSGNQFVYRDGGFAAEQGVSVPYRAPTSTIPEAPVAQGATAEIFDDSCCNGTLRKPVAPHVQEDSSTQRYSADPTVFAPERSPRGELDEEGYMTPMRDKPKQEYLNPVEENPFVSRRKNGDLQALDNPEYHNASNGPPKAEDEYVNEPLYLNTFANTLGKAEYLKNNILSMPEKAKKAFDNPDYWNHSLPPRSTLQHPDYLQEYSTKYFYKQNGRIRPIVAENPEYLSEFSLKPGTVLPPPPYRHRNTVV
T4 sequence (Q00534 whole entry): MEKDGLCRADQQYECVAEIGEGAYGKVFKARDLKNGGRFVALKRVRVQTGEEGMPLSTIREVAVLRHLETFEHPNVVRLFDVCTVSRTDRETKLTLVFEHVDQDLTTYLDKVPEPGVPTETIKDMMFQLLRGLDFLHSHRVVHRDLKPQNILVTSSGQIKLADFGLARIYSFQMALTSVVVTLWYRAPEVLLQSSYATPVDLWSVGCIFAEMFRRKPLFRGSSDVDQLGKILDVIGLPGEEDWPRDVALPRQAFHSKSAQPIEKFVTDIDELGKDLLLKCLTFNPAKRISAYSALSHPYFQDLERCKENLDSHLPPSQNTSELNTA
T4 sequence (P24385 whole entry partner): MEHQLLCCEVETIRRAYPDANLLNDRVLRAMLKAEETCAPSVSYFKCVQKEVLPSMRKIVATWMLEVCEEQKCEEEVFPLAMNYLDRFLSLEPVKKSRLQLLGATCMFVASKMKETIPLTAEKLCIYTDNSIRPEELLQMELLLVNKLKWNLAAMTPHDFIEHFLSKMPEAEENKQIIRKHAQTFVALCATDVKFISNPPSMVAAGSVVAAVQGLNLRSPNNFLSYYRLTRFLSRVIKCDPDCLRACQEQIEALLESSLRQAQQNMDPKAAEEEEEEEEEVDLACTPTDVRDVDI
T3 sequence (Q8N5S9 whole entry): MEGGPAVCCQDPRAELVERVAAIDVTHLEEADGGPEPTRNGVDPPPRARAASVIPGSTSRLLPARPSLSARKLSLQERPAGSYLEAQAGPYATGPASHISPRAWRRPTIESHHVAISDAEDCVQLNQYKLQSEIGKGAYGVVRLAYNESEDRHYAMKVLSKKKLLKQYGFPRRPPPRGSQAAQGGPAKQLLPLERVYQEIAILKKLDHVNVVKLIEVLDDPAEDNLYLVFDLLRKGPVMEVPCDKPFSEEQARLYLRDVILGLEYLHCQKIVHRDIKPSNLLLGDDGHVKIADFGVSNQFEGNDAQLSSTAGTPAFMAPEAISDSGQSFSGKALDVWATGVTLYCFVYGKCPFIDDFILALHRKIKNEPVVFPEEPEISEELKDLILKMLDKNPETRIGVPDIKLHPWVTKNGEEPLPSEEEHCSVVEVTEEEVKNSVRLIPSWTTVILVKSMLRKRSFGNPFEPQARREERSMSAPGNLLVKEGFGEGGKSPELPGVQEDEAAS

Regarding `COc1ccnc2[nH]cc(-c3cc(N)nc(N)c3)c12` [meriolin 16], the residual kinase activity on ABL1 (0.03 µM) is reported as 103 % of control; at ABL1 (0.3 µM) it was 99 % of control; at BRSK2 (0.03 µM), 111 % of control; on BRSK2 (0.3 µM), 92 % of control; at CAMKK1 (0.03 µM), 97 % of control; on CAMKK1 (0.3 µM) it was 95 % of control. Moreover, the residual kinase activity at CDK6/CycD1 (0.03 µM) is 93 % of control; at CDK6/CycD1 (0.3 µM), 51 % of control; at EIF2AK3 (0.03 µM), 87 % of control; on EIF2AK3 (0.3 µM), 90 % of control; at ERBB4 (0.03 µM), 108 % of control; at ERBB4 (0.3 µM) it was 90 % of control. The residual kinase activity at FES (0.03 µM) was 93 % of control; on FES (0.3 µM), 87 % of control; at PKCΔ (0.03 µM), 47 % of control; on PKCΔ (0.3 µM) it was 6 % of control; at TSSK1 (0.03 µM), 109 % of control; on TSSK1 (0.3 µM), 83 % of control.

Take `c1ccc(CNc2cc(-c3c[nH]c4ncccc34)ccn2)cc1` [meriolin 36]: the residual kinase activity at ABL1 (0.3 µM) is recorded as 80 % of control; at ABL1 (3 µM), 26 % of control; on BRSK2 (0.3 µM), 112 % of control; at BRSK2 (3 µM), 61 % of control; on CAMKK1 (0.3 µM), 51 % of control; at CAMKK1 (3 µM), 18 % of control. Moreover, the residual kinase activity on CDK6/CycD1 (0.3 µM) is reported as 2 % of control; on CDK6/CycD1 (3 µM), 1 % of control; at EIF2AK3 (0.3 µM) it was 81 % of control; on EIF2AK3 (3 µM) it was 74 % of control; at ERBB4 (0.3 µM), 101 % of control; on ERBB4 (3 µM) it was 56 % of control. The residual kinase activity is given as 83 % of control at FES (0.3 µM); 50 % of control on FES (3 µM); 4 % of control at PKCΔ (0.3 µM); 0 % of control at PKCΔ (3 µM); 50 % of control on TSSK1 (0.3 µM); 15 % of control on TSSK1 (3 µM).

Source of the values: publication PMC11167047 (Cell Death Discovery, 2024).
